Data taken from the supplement of paper PMC10307832.

Tests used:
Assay in all cases: relative viability (nuclei count vs DMSO), 5 days (fraction); higher = more cells survive
Wnt-C59 + Trametinib = compound: CC1=NC=CC(=C1)C2=CC=C(C=C2)CC(=O)NC3=CC=C(C=C3)C4=CN=CC=C4 [Wnt-C59] + CC(=O)Nc1cccc(-n2c(=O)n(C3CC3)c(=O)c3c(Nc4ccc(I)cc4F)n(C)c(=O)c(C)c32)c1 [Trametinib] (partner 0.02 µM)
Procedure, shortened: (§1)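 The day after seeding in 1536-well plates, lung cancer cell lines were treated by pin tool with a single drug, or with a fixed anchor-drug dose together with five library-drug doses (not always all listed) in √10 steps. After 5 days, a combined fix-and-stain solution (final 0.05% Triton X-100, 1% formaldehyde, 1 ug/ml Hoechst) was added. Nuclei counted on 4× images gave relative viability as treated counts over vehicle counts, reported as the median of duplicate plates.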

Wnt-C59 + Lapatinib = compound: CC1=NC=CC(=C1)C2=CC=C(C=C2)CC(=O)NC3=CC=C(C=C3)C4=CN=CC=C4 [Wnt-C59] + CS(=O)(=O)CCNCc1ccc(-c2ccc3ncnc(Nc4ccc(OCc5cccc(F)c5)c(Cl)c4)c3c2)o1 [Lapatinib] (partner 2 µM)
Procedure, shortened: as §1

Wnt-C59 + AZD7762 = compound: CC1=NC=CC(=C1)C2=CC=C(C=C2)CC(=O)NC3=CC=C(C=C3)C4=CN=CC=C4 [Wnt-C59] + NC(=O)Nc1cc(-c2cccc(F)c2)sc1C(=O)N[C@H]1CCCNC1 [AZD7762] (partner 0.2 µM)
Procedure, shortened: as §1

Lapatinib + Foretinib = compound: CS(=O)(=O)CCNCc1ccc(-c2ccc3ncnc(Nc4ccc(OCc5cccc(F)c5)c(Cl)c4)c3c2)o1 [Lapatinib] + COc1cc2c(Oc3ccc(NC(=O)C4(C(=O)Nc5ccc(F)cc5)CC4)cc3F)ccnc2cc1OCCCN1CCOCC1 [Foretinib] (partner 0.25 µM)
Procedure, shortened: as §1

Cell Line	relative viability (Wnt-C59 + Trametinib; first compound 0.001 µM)	relative viability (Wnt-C59 + Trametinib; first compound 0.01 µM)	relative viability (Wnt-C59 + Trametinib; first compound 0.03162 µM)	relative viability (Wnt-C59 + Trametinib; first compound 0.1 µM)	relative viability (Wnt-C59 + Lapatinib; first compound 0.001 µM)	relative viability (Wnt-C59 + Lapatinib; first compound 0.01 µM)	relative viability (Wnt-C59 + Lapatinib; first compound 0.03162 µM)	relative viability (Wnt-C59 + Lapatinib; first compound 0.1 µM)	relative viability (Wnt-C59 + AZD7762; first compound 0.001 µM)	relative viability (Wnt-C59 + AZD7762; first compound 0.01 µM)	relative viability (Wnt-C59 + AZD7762; first compound 0.03162 µM)	relative viability (Wnt-C59 + AZD7762; first compound 0.1 µM)	relative viability (Lapatinib + Foretinib; first compound 0.02 µM)	relative viability (Lapatinib + Foretinib; first compound 0.2 µM)	relative viability (Lapatinib + Foretinib; first compound 0.6325 µM)	relative viability (Lapatinib + Foretinib; first compound 2 µM)	relative viability (Lapatinib + Foretinib; first compound 0.06325 µM)
NCI-H1993	0.634	0.486	0.507	0.465	0.734	0.832	0.852	0.825	0.965	0.665	1.05	0.769	0.691	0.75	0.71	0.762	
LCLC-97TM1	0.216	0.201	0.22	0.193	1.64	0.603	1.07	0.687	0.287	0.303	0.362	0.206		0.843	0.973	1.02	
EKVX	0.366		0.324	0.319	0.244	0.183	0.151	0.206	0.871		0.689	0.651	0.202	0.822	0.581	0.201	0.738
NCI-H596	0.734	0.704	0.879	0.876	1.07	1.1	1.2	1.13	1.06	1.03	0.987	1.08		0.756	0.835	0.789	0.832
NCI-H1975	0.414	0.38	0.33	0.349	0.816	0.863	0.934	0.882	0.72	0.653	0.724	0.773	0.924	1.02	0.835	0.715	0.855
HCC-78	0.691	0.746	0.908	0.854	0.632	0.721	0.901	0.741	0.59	0.653	0.688	0.624		0.446	0.429	0.401	0.427
H3255	0.664	0.495	0.683	0.506	0.278	0.283	0.259	0.242	0.927	0.922	0.953	0.828	0.405	0.826	0.862	0.686	0.789
RERF-LC-KJ	0.936	0.884	0.962	0.753	0.892	0.836	0.925	0.797	0.965	0.934	1.19	0.912	0.887	0.924	0.85	0.759	0.794
NCI-H23	0.396	0.346	0.385	0.432	1.14	1.11	1.31	0.958	0.244	0.257	0.243	0.296		0.908	0.958	0.898	
HCC-15	0.417	0.371	0.404	0.359	0.859	0.91	0.774	0.823	1.28	1.34	1.29	1.06		1.02	0.949	0.971	0.812
LU99A	0.583	0.474	0.569	0.506	0.905	0.999	1.07	0.97	0.374	0.491	0.338	0.313	0.784	0.74	0.836	0.815	0.72
HOP-62	0.347	0.366	0.352	0.347	0.907	0.996	1.04	1.03	0.403	0.598	0.769	0.478	1.14	1.03	1.09	1.13	1.16
NCI-H1793	0.495	0.408	0.385	0.425	0.787	0.555	0.717	0.855	0.467	0.408	0.536	0.532		0.497	0.524	0.422	0.5
LXF-289	0.617	0.629	0.73	0.632	0.925	0.903	0.891	0.849	1.06	1.07	1.09	1.07	0.996	0.967	0.948	0.851	0.953
HCC-827	0.545	0.477	0.48	0.547	0.188	0.163	0.191	0.203	0.274	0.27	0.219	0.175	1.08	1.05	0.97	0.155	0.974
PC-14	0.97	0.911	0.9	0.729	0.311	0.324	0.328	0.316	0.414	0.367	0.351	0.457	0.864	1.03	0.873	0.78	0.913
NCI-H1915	0.302	0.304	0.346	0.31	0.88	0.939	1.03	0.944	0.761	0.69	0.708	0.69		1.12	1.08	1.09	1.06

Cell Line	relative viability (Wnt-C59 + Trametinib; first compound 0.001 µM)	relative viability (Wnt-C59 + Trametinib; first compound 0.01 µM)	relative viability (Wnt-C59 + Trametinib; first compound 0.03162 µM)	relative viability (Wnt-C59 + Trametinib; first compound 0.1 µM)	relative viability (Wnt-C59 + Lapatinib; first compound 0.001 µM)	relative viability (Wnt-C59 + Lapatinib; first compound 0.01 µM)	relative viability (Wnt-C59 + Lapatinib; first compound 0.03162 µM)	relative viability (Wnt-C59 + Lapatinib; first compound 0.1 µM)	relative viability (Wnt-C59 + AZD7762; first compound 0.001 µM)	relative viability (Wnt-C59 + AZD7762; first compound 0.01 µM)	relative viability (Wnt-C59 + AZD7762; first compound 0.03162 µM)	relative viability (Wnt-C59 + AZD7762; first compound 0.1 µM)	relative viability (Lapatinib + Foretinib; first compound 0.02 µM)	relative viability (Lapatinib + Foretinib; first compound 0.2 µM)	relative viability (Lapatinib + Foretinib; first compound 0.6325 µM)	relative viability (Lapatinib + Foretinib; first compound 2 µM)	relative viability (Lapatinib + Foretinib; first compound 0.06325 µM)
EPLC-272H	0.275	0.277	0.316	0.298	0.837	0.959	1.19	0.954	0.246	0.247	0.289	0.247		0.542	0.687	0.325	
NCI-H2126	0.579	0.532	0.573	0.581	0.78	0.731	0.792	0.772	1.01	1.02	1.02	1.05		1.13	1.03	0.612	
NCI-H2170	0.923	0.864	1.03	0.974	0.265	0.262	0.275	0.271	0.762	0.688	0.992	0.836	1.05	0.784	0.655	0.25	0.961
NCI-H650	0.984	0.934	1.08	1.05	0.532	0.846	0.895	0.873	0.883	1.03	0.969	1.24		0.989	1.06	0.979	0.94
LOU-NH91	0.817	0.788	0.802	0.792	0.76	0.709	0.768	0.771	0.765	0.67	0.778	0.761	0.902	0.689	0.604	0.498	0.815
LC-2-ad	0.904	0.874	0.905	0.9	1.03	0.902	0.975	0.927	0.851	0.829	0.882	0.865		0.872	0.769	0.567	0.655
NCI-H1355	0.455	0.404	0.423	0.373	1.04	0.922	1.05	0.842	0.81	0.753	0.753	0.766		0.94	0.93	0.657	0.795
NCI-H2347	0.357	0.271	0.318	0.194	0.961	0.861	0.976	0.854	0.726	0.738	0.779	0.698		0.854	0.994	1.02	0.694
NCI-H1944	0.433	0.449	0.431	0.369	0.745	0.795	0.866	0.769	0.474	0.482	0.452	0.534	0.836	0.745	0.723	0.537	0.637
201T	0.698	0.747	0.733	0.698	0.985	1.04	1.03	0.991	0.713	0.697	0.598	0.606	1.18	1.03	1.03	0.76	
NCI-H2087	0.203	0.176	0.205	0.259	1.01	1.04	1.08	0.908	1.43	1.37	1.28	1.2		1.17	0.994	0.962	0.942
BEN	1.13	0.995	1	1.04	0.825	0.804	0.736	0.641	0.823	0.623	0.761	0.856		0.653	0.763	0.554	0.667
NCI-H1755	0.797	0.792	0.759	0.719	1.01	0.98	1.03	0.952	0.498	0.433	0.436	0.473	0.866	0.898	0.896	0.892	0.865
EMC-BAC-2	0.797	0.697	0.793	0.713	0.828	0.755	0.849	0.794	0.941	0.975	0.897	0.975	0.953	0.969	0.86	0.857	0.844
NCI-H1734	0.675	0.744	0.77	0.632	0.948	1.04	1.09	1.02	0.589	0.517	0.641	0.543	0.842	0.804	0.888	0.779	0.694
NCI-H727	0.399	0.369	0.355	0.406	0.891	0.761	0.787	0.966	0.776	0.528	0.598	0.687	0.617	0.673	0.708	0.691	
A-427	0.749	0.746	0.81	0.876	1.04	1.01	1.09	1.11	0.801	0.815	0.831	0.688		1.1	1.08	0.859	0.905
